{"source": "PubChem BioAssay (NCI)", "note": "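Test compounds were applied to cells in 96-well plates for 48 hours at 5 doses. GI50: concentration for 50% inhibition of growth. The concentration for full growth arrest is given as TGI.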", "data": [{"tested_on": "HOP-62 NSCLC", "assay": "inhibition of tumour cell growth, NCI panel, 48 h", "units": {"GI50": "µM", "TGI": "µM"}, "values": [{"smiles": "Cc1cc(S(N)(=O)=O)c(S/C(=N\\NS(=O)(=O)c2ccccc2)c2ccc(Cl)cc2)cc1Cl", "GI50": "> 100", "TGI": "> 100"}, {"smiles": "COc1ccc2c(c1)C(=O)c1c-2c(OCCN(C)C)nc2cc(OC)c(OC)cc12", "GI50": 1.32, "TGI": 32}, {"smiles": "COc1ccc(COCC[C@H](C)OC2OC(CO)C(O)C(O)C2O)cc1", "note": "(some centres not stated)", "TGI": "> 100"}]}, {"tested_on": "HOP-92 NSCLC", "assay": "inhibition of tumour cell growth, NCI panel, 48 h", "units": {"GI50": "µM", "TGI": "µM"}, "values": [{"smiles": "CCn1c(-c2nonc2N)nc2cnc(Oc3cccc(NC(=O)c4ccc(N(C)C)cc4)c3)cc21", "GI50": 0.00447, "TGI": "> 25"}, {"smiles": "Cc1cc(S(N)(=O)=O)c(S/C(=N\\NS(=O)(=O)c2ccccc2)c2ccc(Cl)cc2)cc1Cl", "GI50": 30.3, "TGI": 84.9}, {"smiles": "COc1ccc2c(c1)C(=O)c1c-2c(OCCN(C)C)nc2cc(OC)c(OC)cc12", "GI50": 3.22, "TGI": 19.6}, {"smiles": "COc1ccc(COCC[C@H](C)OC2OC(CO)C(O)C(O)C2O)cc1", "note": "(some centres not stated)", "TGI": "> 100"}]}, {"tested_on": "HS 578T breast", "assay": "inhibition of tumour cell growth, NCI panel, 48 h", "units": {"GI50": "µM", "TGI": "µM"}, "values": [{"smiles": "CCn1c(-c2nonc2N)nc2cnc(Oc3cccc(NC(=O)c4ccc(N(C)C)cc4)c3)cc21", "GI50": 0.0623, "TGI": "> 25"}, {"smiles": "Cc1cc(S(N)(=O)=O)c(S/C(=N\\NS(=O)(=O)c2ccccc2)c2ccc(Cl)cc2)cc1Cl", "GI50": 39.8, "TGI": "> 100"}, {"smiles": "COc1ccc2c(c1)C(=O)c1c-2c(OCCN(C)C)nc2cc(OC)c(OC)cc12", "GI50": 12.8, "TGI": 35.7}, {"smiles": "COc1ccc(COCC[C@H](C)OC2OC(CO)C(O)C(O)C2O)cc1", "note": "(some centres not stated)", "TGI": "> 100"}]}, {"tested_on": "HT29 colon", "assay": "inhibition of tumour cell growth, NCI panel, 48 h", "units": {"GI50": "µM", "TGI": "µM"}, "values": [{"smiles": "CCn1c(-c2nonc2N)nc2cnc(Oc3cccc(NC(=O)c4ccc(N(C)C)cc4)c3)cc21", "GI50": "> 25", "TGI": "> 25"}, {"smiles": "Cc1cc(S(N)(=O)=O)c(S/C(=N\\NS(=O)(=O)c2ccccc2)c2ccc(Cl)cc2)cc1Cl", "GI50": "> 100", "TGI": "> 100"}, {"smiles": "COc1ccc2c(c1)C(=O)c1c-2c(OCCN(C)C)nc2cc(OC)c(OC)cc12", "GI50": 1.76, "TGI": 18.1}, {"smiles": "COc1ccc(COCC[C@H](C)OC2OC(CO)C(O)C(O)C2O)cc1", "note": "(some centres not stated)", "TGI": "> 100"}]}, {"tested_on": "IGROV1 ovarian", "assay": "inhibition of tumour cell growth, NCI panel, 48 h", "units": {"GI50": "µM", "TGI": "µM"}, "values": [{"smiles": "CCn1c(-c2nonc2N)nc2cnc(Oc3cccc(NC(=O)c4ccc(N(C)C)cc4)c3)cc21", "GI50": 22, "TGI": "> 25"}, {"smiles": "Cc1cc(S(N)(=O)=O)c(S/C(=N\\NS(=O)(=O)c2ccccc2)c2ccc(Cl)cc2)cc1Cl", "GI50": "> 100", "TGI": "> 100"}, {"smiles": "COc1ccc(COCC[C@H](C)OC2OC(CO)C(O)C(O)C2O)cc1", "note": "(some centres not stated)", "TGI": "> 100"}]}, {"tested_on": "K-562 leukemia", "assay": "inhibition of tumour cell growth, NCI panel, 48 h", "units": {"GI50": "µM", "TGI": "µM"}, "values": [{"smiles": "CCn1c(-c2nonc2N)nc2cnc(Oc3cccc(NC(=O)c4ccc(N(C)C)cc4)c3)cc21", "GI50": "> 25", "TGI": "> 25"}, {"smiles": "Cc1cc(S(N)(=O)=O)c(S/C(=N\\NS(=O)(=O)c2ccccc2)c2ccc(Cl)cc2)cc1Cl", "GI50": 59, "TGI": "> 100"}, {"smiles": "COc1ccc2c(c1)C(=O)c1c-2c(OCCN(C)C)nc2cc(OC)c(OC)cc12", "GI50": 5.04, "TGI": 30.9}, {"smiles": "COc1ccc(COCC[C@H](C)OC2OC(CO)C(O)C(O)C2O)cc1", "note": "(some centres not stated)", "TGI": "> 100"}]}, {"tested_on": "KM12 colon", "assay": "inhibition of tumour cell growth, NCI panel, 48 h", "units": {"GI50": "µM", "TGI": "µM"}, "values": [{"smiles": "CCn1c(-c2nonc2N)nc2cnc(Oc3cccc(NC(=O)c4ccc(N(C)C)cc4)c3)cc21", "GI50": "> 25", "TGI": "> 25"}, {"smiles": "Cc1cc(S(N)(=O)=O)c(S/C(=N\\NS(=O)(=O)c2ccccc2)c2ccc(Cl)cc2)cc1Cl", "GI50": "> 100", "TGI": "> 100"}, {"smiles": "COc1ccc2c(c1)C(=O)c1c-2c(OCCN(C)C)nc2cc(OC)c(OC)cc12", "GI50": 0.762, "TGI": 13.4}, {"smiles": "COc1ccc(COCC[C@H](C)OC2OC(CO)C(O)C(O)C2O)cc1", "note": "(some centres not stated)", "TGI": "> 100"}]}, {"tested_on": "LOX IMVI melanoma", "assay": "inhibition of tumour cell growth, NCI panel, 48 h", "units": {"GI50": "µM", "TGI": "µM"}, "values": [{"smiles": "CCn1c(-c2nonc2N)nc2cnc(Oc3cccc(NC(=O)c4ccc(N(C)C)cc4)c3)cc21", "GI50": "> 25", "TGI": "> 25"}, {"smiles": "Cc1cc(S(N)(=O)=O)c(S/C(=N\\NS(=O)(=O)c2ccccc2)c2ccc(Cl)cc2)cc1Cl", "GI50": "> 100", "TGI": "> 100"}, {"smiles": "COc1ccc2c(c1)C(=O)c1c-2c(OCCN(C)C)nc2cc(OC)c(OC)cc12", "GI50": 1.01, "TGI": 12.3}, {"smiles": "COc1ccc(COCC[C@H](C)OC2OC(CO)C(O)C(O)C2O)cc1", "note": "(some centres not stated)", "TGI": "> 100"}]}, {"tested_on": "M14 melanoma", "assay": "inhibition of tumour cell growth, NCI panel, 48 h", "units": {"GI50": "µM", "TGI": "µM"}, "values": [{"smiles": "CCn1c(-c2nonc2N)nc2cnc(Oc3cccc(NC(=O)c4ccc(N(C)C)cc4)c3)cc21", "GI50": "> 25", "TGI": "> 25"}, {"smiles": "Cc1cc(S(N)(=O)=O)c(S/C(=N\\NS(=O)(=O)c2ccccc2)c2ccc(Cl)cc2)cc1Cl", "GI50": 87.9, "TGI": "> 100"}, {"smiles": "COc1ccc2c(c1)C(=O)c1c-2c(OCCN(C)C)nc2cc(OC)c(OC)cc12", "GI50": 18.5, "TGI": 61.6}, {"smiles": "COc1ccc(COCC[C@H](C)OC2OC(CO)C(O)C(O)C2O)cc1", "note": "(some centres not stated)", "TGI": "> 100"}]}, {"tested_on": "MALME-3M melanoma", "assay": "inhibition of tumour cell growth, NCI panel, 48 h", "units": {"GI50": "µM", "TGI": "µM"}, "values": [{"smiles": "CCn1c(-c2nonc2N)nc2cnc(Oc3cccc(NC(=O)c4ccc(N(C)C)cc4)c3)cc21", "GI50": "> 25", "TGI": "> 25"}, {"smiles": "Cc1cc(S(N)(=O)=O)c(S/C(=N\\NS(=O)(=O)c2ccccc2)c2ccc(Cl)cc2)cc1Cl", "GI50": 65.4, "TGI": "> 100"}, {"smiles": "COc1ccc2c(c1)C(=O)c1c-2c(OCCN(C)C)nc2cc(OC)c(OC)cc12", "GI50": 12.1, "TGI": 28.3}]}, {"tested_on": "MCF7 breast", "assay": "inhibition of tumour cell growth, NCI panel, 48 h", "units": {"GI50": "µM", "TGI": "µM"}, "values": [{"smiles": "CCn1c(-c2nonc2N)nc2cnc(Oc3cccc(NC(=O)c4ccc(N(C)C)cc4)c3)cc21", "GI50": "> 25", "TGI": "> 25"}, {"smiles": "Cc1cc(S(N)(=O)=O)c(S/C(=N\\NS(=O)(=O)c2ccccc2)c2ccc(Cl)cc2)cc1Cl", "GI50": 75.3, "TGI": "> 100"}, {"smiles": "COc1ccc2c(c1)C(=O)c1c-2c(OCCN(C)C)nc2cc(OC)c(OC)cc12", "GI50": 0.271, "TGI": 14.9}, {"smiles": "COc1ccc(COCC[C@H](C)OC2OC(CO)C(O)C(O)C2O)cc1", "note": "(some centres not stated)", "TGI": "> 100"}]}, {"tested_on": "MDA-MB-231 breast", "assay": "inhibition of tumour cell growth, NCI panel, 48 h", "units": {"GI50": "µM", "TGI": "µM"}, "values": [{"smiles": "CCn1c(-c2nonc2N)nc2cnc(Oc3cccc(NC(=O)c4ccc(N(C)C)cc4)c3)cc21", "GI50": "> 17", "TGI": "> 25"}, {"smiles": "Cc1cc(S(N)(=O)=O)c(S/C(=N\\NS(=O)(=O)c2ccccc2)c2ccc(Cl)cc2)cc1Cl", "GI50": "> 100", "TGI": "> 100"}, {"smiles": "COc1ccc2c(c1)C(=O)c1c-2c(OCCN(C)C)nc2cc(OC)c(OC)cc12", "GI50": 10.1, "TGI": 22.1}, {"smiles": "COc1ccc(COCC[C@H](C)OC2OC(CO)C(O)C(O)C2O)cc1", "note": "(some centres not stated)", "TGI": "> 100"}]}, {"tested_on": "MDA-MB-435", "assay": "inhibition of tumour cell growth, NCI panel, 48 h", "units": {"GI50": "µM", "TGI": "µM"}, "values": [{"smiles": "CCn1c(-c2nonc2N)nc2cnc(Oc3cccc(NC(=O)c4ccc(N(C)C)cc4)c3)cc21", "GI50": "> 25", "TGI": "> 25"}, {"smiles": "Cc1cc(S(N)(=O)=O)c(S/C(=N\\NS(=O)(=O)c2ccccc2)c2ccc(Cl)cc2)cc1Cl", "GI50": "> 100", "TGI": "> 100"}, {"smiles": "COc1ccc2c(c1)C(=O)c1c-2c(OCCN(C)C)nc2cc(OC)c(OC)cc12", "GI50": 5.3, "TGI": "> 100"}, {"smiles": "COc1ccc(COCC[C@H](C)OC2OC(CO)C(O)C(O)C2O)cc1", "note": "(some centres not stated)", "TGI": "> 100"}]}, {"tested_on": "MOLT-4 leukemia", "assay": "inhibition of tumour cell growth, NCI panel, 48 h", "units": {"GI50": "µM", "TGI": "µM"}, "values": [{"smiles": "CCn1c(-c2nonc2N)nc2cnc(Oc3cccc(NC(=O)c4ccc(N(C)C)cc4)c3)cc21", "GI50": 13.6, "TGI": "> 25"}, {"smiles": "Cc1cc(S(N)(=O)=O)c(S/C(=N\\NS(=O)(=O)c2ccccc2)c2ccc(Cl)cc2)cc1Cl", "GI50": 34.4, "TGI": "> 100"}, {"smiles": "COc1ccc2c(c1)C(=O)c1c-2c(OCCN(C)C)nc2cc(OC)c(OC)cc12", "GI50": 0.197, "TGI": "> 100"}, {"smiles": "COc1ccc(COCC[C@H](C)OC2OC(CO)C(O)C(O)C2O)cc1", "note": "(some centres not stated)", "TGI": "> 100"}]}, {"tested_on": "NCI-H226 lung", "assay": "inhibition of tumour cell growth, NCI panel, 48 h", "units": {"GI50": "µM", "TGI": "µM"}, "values": [{"smiles": "CCn1c(-c2nonc2N)nc2cnc(Oc3cccc(NC(=O)c4ccc(N(C)C)cc4)c3)cc21", "GI50": "> 25", "TGI": "> 25"}, {"smiles": "Cc1cc(S(N)(=O)=O)c(S/C(=N\\NS(=O)(=O)c2ccccc2)c2ccc(Cl)cc2)cc1Cl", "GI50": "> 100", "TGI": "> 100"}]}]}
